Results as given in patent US12440475B2, “Hodgkin lymphoma therapy” (priority 2016, dated 2025).

What was measured:
[1] = tested on: L428; test: Clonogenic survival in methylcellulose, L428; type: cell-based, human; conditions: very low doses (0.1 and 0.5 μmol)
Description: (§1) In all examples, the human Hodgkin lymphoma-derived cell lines L428, L428-c, KMH2, L591, L540, L1236, HDLM2 and SUP-HD were obtained from Dr Steffen Junker (Aarhus University Denmark). All cell lines were cultured in Gibco RPMI 1640 medium supplemented with Glutamax, 10% FBS and antibiotics at 37° C. […] The immunophenotype, P53 status and MSI characterization of the Hodgkin lymphoma cell lines was determined using anti-CD30, CD15, CD20 and CD14 antibodies.
(§2) This test was performed on four Hodgkin lymphoma cell lines (L428, L428s, KMH2 and L540). Each was cultured with EDO-S101 at doses of 0, 0.1, 0.5, 1, 10 and 20 μmol in DMSO. The cell lines were cultured in methylcellulose (Stem cell Technologies) at a concentration of 10^5/ml at 37° C. and 5% CO2. The surviving fraction was determined by measuring the viability of colonies generated before and after exposure. Only colonies with more than 50 cells were counted. Each data point represents the average and SD from three independent experiments performed in triplicate.

[2] = tested on: Hodgkin lymphoma cell lines; test: Proliferation and IC50 determination (MTS assay; manual counting using Trypan blue); type: cell-based; conditions: Homo sapiens, 48 h, range over all cell lines
Description: Nine Hodgkin lymphoma cell lines were cultured at 37° C. in 24-well plates at a concentration of 0.3×10^6 cells/ml in the presence of EDO-S101 at concentrations of 0, 5, 10, 15 and 20 μmol in DMSO for 24 hours and 48 hours and the proliferation of the cells was determined using a non-radioactive cell proliferation MTS assay with CellTiter 96® Aqueous One solution reagent obtained from Promega® (this is a colorimetric method for determining the number of viable cells in a proliferation comprising a tetrazolium compound [3-(4,5-dimethylthiazol-2-yl)-5-(3-carboxymethoxyphenyl)-2-(4-sulfophenyl)-2H-tetrazolium, inner salt; MIS). The proliferation was plotted against concentration of EDO-S101 for treatment after both 24 and 48 hours.

[3] = tested on: L428s; test: Clonogenic survival in methylcellulose, L428s; type: cell-based, human; conditions: very low doses (0.1 and 0.5 μmol)
Description: as §1, §2

[4] = tested on: KMH2; test: Mitotic index and chromosomal aberrations, KMH2; type: cell-based, human
Description: (§3) The mitotic index and chromosomal aberrations for each of the cell lines were evaluated after treatment with either 20 μmol or 10 μmol EDO-S101 in DMSO. Each cell line was cultured at 37° C. in the presence of RPMI 1640 supplemented with 10% FCS and antibiotics. Colcemid (0.1 ug/ml) was added 2 h before harvesting and slides with chromosomes in metaphase were prepared following the standard methanol/acetic acid (3/1, v/v) procedure. The slides were stored at −20° C. until use.
(§4) FISH was performed using a combination of standard procedures from the recommended protocols for chromosome analysis, following telomere and centromere staining, using PNA probes. In all, 100 metaphases were scored per in vitro dose exposure.
(§5) The mitotic index was determined by measurement of the sum of all cells in prophase, metaphase, anaphase and telophase divided by the total number of cells.

[5] = tested on: L428 cells; test: Cytogenetic analysis of cells from xenografted mice; type: in vivo, NSG mice; conditions: different doses, including a single dose of 60 mg/kg
Description: Separated cells were cultured in the presence of RPMI 1640 supplemented with 10% Fetal Calf Serum (FCS) and antibiotics, colcemid (0.1 μg/ml) added 2 h before harvesting, and the slides with metaphase chromosomes prepared following the standard methanol/acetic acid (3/1, v/v) procedure.
Four new cell lines were generated after one month of in vitro culture following 24 hour of exposure to EDO-S101. Fluorescence in situ hybridysation (FISH) was performed using a combination of standard procedures from the recommended protocols for chromosomal analysis, following telomere and centromere staining, using peptide nucleic acid (PNA) probes in order to detect unstable chromosomal aberrations and to delimit the chromosome territory. M-FISH was performed using multi-FISH probes (Metasystems GmbH, Altlussheim, Germany), according to the manufacturer's recommendations on the same slide. Images of hybridized metaphases were captured using a charge coupled device camera (Zeiss, Thornwood, NY) coupled to a Zeiss Axioplan microscope and processed using ISIS software (Metasystems).
The ocular tumour masses were harvested, as well as cells which infiltrated the liver. Five new cell lines were established from ocular tumours and the livers of both control mice (PBS or vehicle). […]

[6] = tested on: KMH2; test: Clonogenic survival in methylcellulose, KMH2; type: cell-based, human; conditions: lowest doses (0.1 and 0.5 μmol)
Description: as §1, §2

[7] = tested on: L540; test: Clonogenic survival in methylcellulose, L540; type: cell-based, human; conditions: any dose (0.1, 0.5, 1, 10 and 20 μmol)
Description: as §1, §2

[8] = tested on: L540; test: Mitotic index, L540; type: cell-based, human
Description: as §3, §4, §5

Cn1c(CCCCCCC(=O)NO)nc2cc(N(CCCl)CCCl)ccc21 [EDO-S101]
clones observed (clonogenic survival) [1]: only macrophagic clones being observed | IC50 [2]: 1.6 to 6.3 µM | clones observed (clonogenic survival) [3]: only macrophagic clones being observed | mitotic index [4]: very low mitotic index | chromosomal aberrations in metaphase ([4]; telomere and centromere staining): numerous chromosomal aberrations | metaphases and cell lines from cells of treated mice [5]: not possible to obtain either metaphases from direct culture or establish cell lines | clones observed (clonogenic survival) [6]: only a few clones | clones observed (clonogenic survival) [7]: No clone was observed | mitotic index [8]: very low mitotic index
